Publication PMC9787607, “A Novel Protocol for the Synthesis of 1,2,4-Oxadiazoles Active against Trypanosomatids and Drug-Resistant Leukemia Cell Lines” (Tropical Medicine and Infectious Disease, 2022)
Where two headings read alike, the source gives them in different places.

Assays:
[1] = test system: L. amazonensis promastigotes; experiment: Anti-L. amazonensis promastigote assessment (MTT); format: cell-based; conditions: Leishmania amazonensis, 48 h, read-out: EC50 L. amazonensis promastigotes
Protocol: Promastigotes of L. amazonensis (MHOM/BR/75/Josefa) were cultured in Schneider’s insect medium (SIM) with 10% FBS. Parasites were harvested at the stationary growth phase for assessment against promastigotes and 24 h after cultures reached the stationary growth phase for infection assays. […]. Complete SIM media and amphotericin B (AmB) at 10 µM were used as negative and positive controls, respectively. A vehicle control containing SIM with 10% SFB media and 0.3% DMSO was maintained for comparison. The final volume of the experiment was 100 µL. After incubation for 48 h at 27 °C, MTT salt solution in PBS was added (3.0 mM, 20 µL per well). After incubation for 2 h at 27 °C, the MTT formazan was dissolved by adding 120 µL of solubilizing buffer (50% isopropanol, 40% acetate buffer pH 5.4, 10% Triton-X). Absorbance was measured using a microplate reader at 570 nm.
(§1) The percent cell or parasite viability was calculated by the formula: % viability = [(A − P)/(N − P)] × 100, A = absorbance of specific well, P = positive control, N = negative control. Determination of half-maximal effective concentrations (EC50), calculated by logarithmic regression, and significance analysis (p < 0.05), using ANOVA and Dunnett’s test, by GraphPad Prism 7.0 software. The results are expressed as the mean and standard deviation (SD) of three independent experiments.

[2] = test system: L. amazonensis amastigotes; experiment: Anti-L. amazonensis amastigote assessment in RAW 264.7 macrophages; format: cell-based, Leishmania amazonensis
Protocol: RAW 264.7 cells were seeded in a 96-well microplate (2.0 × 10^4 cells per well) in complete DMEM with 5% FBS and incubated for 3 h at 37 °C in 5% CO2 for cell adhesion. The medium was renewed, and L. amazonensis promastigotes (3.0 × 10^5 parasites per well) were added. After 24 h of incubation at 37 °C in 5% CO2, the cell monolayer was washed with PBS to remove noninternalized parasites, the medium was renewed, and compounds were added at a range of concentrations in triplicate (100–1 μM). Untreated infected cells and noninfected RAW 264.7 cells were used as negative and positive controls, respectively. Vehicle control containing DMEM and 0.3% DMSO was maintained for comparison. After incubation for 48 h at 37 °C in 5% CO2, the medium was removed, and a solution containing 0.02% SDS in PBS (20 µL per well) was added. Macrophage lysis and amastigote release were accompanied under an inverted microscope for 10–15 min. SIM with 12.5% SFB (80 µL per well) was added, parasites were allowed to differentiate into promastigotes for 48 h at 27 °C, and an MTT salt solution in PBS was added (3.0 mM, 20 µL per well). After incubation for 2 h at 27 °C, the MTT formazan was dissolved by adding 120 µL of solubilizing buffer (50% isopropanol, 40% acetate buffer pH 5.4, 10% Triton X). Absorbance was measured using a microplate reader at 570 nm.
as §1

RAW 264.7 cells = experiment: Cytotoxicity to RAW 264.7 cells (MTT); format: cell-based, murine; conditions: Mus musculus, RAW264.7, 48 h, read-out: EC50 RAW
Protocol: (§2) LLC-MK2 kidney fibroblasts (ATCC) and RAW 264.7 macrophages (ATCC) were cultivated in culture flasks in complete DMEM with 5% FBS at 37 °C in 5% CO2. The LLC-MK2 cell monolayer was detached by treatment with trypsin-EDTA 0.05% for 5 min at 37 °C. The RAW cell monolayer was detached mechanically. In both cases, the cells were centrifuged at 480× g for 6 min and resuspended in complete DMEM with 5% FBS, and the cell density was determined by counting with trypan-blue dye exclusion on Neubauer chambers before use.
RAW 264.7 cells were seeded in a 96-well microplate (2.0 × 10^4 cells per well) in complete DMEM with 5% FBS (120 µL per well). After incubation for 24 h at 37 °C in 5% CO2, the medium was renewed, and compounds were added at a range of concentrations in triplicate (100–1 μM). Untreated cells and cells treated with DMEM and 10% DMSO were used as negative and positive controls, respectively. Vehicle control containing DMEM and 0.3% DMSO was maintained for comparison. After incubation for 48 h at 37 °C in 5% CO2, the medium was renewed, and an MTT solution in PBS was added (3.0 mM, 20 µL per well). After incubation for 2 h at 37 °C in 5% CO2, the supernatant was removed, and MTT formazan was dissolved in DMSO (150 µL per well). Absorbance was measured using a microplate reader at 570 nm.
as §1

T. cruzi epimastigotes = test system: T. cruzi epimastigotes; design: method as in PMID 19517898; conditions: T. cruzi epimastigotes at 50 μM; cited from earlier work
K562 = experiment: MTT cytotoxicity to CML cell line K562; format: cell-based; conditions: Homo sapiens, 72 h
Protocol: (§3) The CML cell lines K562, Lucena-1 (K562/VCR), and FEPS (K562/DNR) were cultured in RPMI-1640 medium supplemented with 25 mM HEPES and 2 g L^−1 sodium bicarbonate adjusted to pH 7.4 with NaOH, 100 U penicillin and […] streptomycin. All media were supplemented with 10% FBS. Dr. Vivian M. Rumjanek (Instituto de Bioquímica Médica, UFRJ, Brazil) kindly donated Lucena-1 and FEPS cells. Briefly, K562 cells were exposed to increasing concentrations of the chemotherapeutic drugs vincristine sulfate (VCR) and daunorubicin hydrochloride (DNR) (both from Sigma-Aldrich), as described previously. Lucena-1 (K562/VCR) and FEPS (K562/DNR) cells were cultured in the presence of either 60 nM VCR or 500 nM DNR to maintain the MDR phenotypes. For subcultures, cells were harvested every three days followed by washing with cold FBS, and a final concentration of 2 × 10^4 cells mL^−1 was maintained at 37 °C in 5% CO2.
(§4) Cell viability was determined by the 3-(4,5-dimethylthiazol-2-yl)-2,5-diphenyltetrazolium (MTT) colorimetric assay. CML cells (2 × 10^4 cells·mL^−1) were incubated for 72 h at 37 °C, followed by treatment with compounds at a range of concentrations (100–1 μM). Negative controls were prepared with 0.5% DMSO. An MTT salt solution was added to each well to a final concentration of 0.5 g·L^−1, and plates were incubated at 37 °C in 5% CO2 for 3 h. After centrifugation, 200 μL DMSO was added to dissolve the dark-blue formazan crystals formed by MTT reduction. Absorbance was measured on a microplate reader at 570 nm, which is directly proportional to formazan contents and indicative of living cells.
as §1

Lucena-1 (K562/VCR) = experiment: cells; format: cell-based, human; conditions: for RR (relative resistance) Lucena-1: (EC50 MDR cells)/(EC50 parental cells), Lucena-1/K562; for EC50: Homo sapiens, Lucena 1, 72 h, read-out: EC50 Lucena-1
Protocol: as §3, §4, §1

FEPS (K562/DNR) = experiment: MTT cytotoxicity to MDR CML cell line FEPS; format: cell-based, human; conditions: for RR (relative resistance) FEPS: (EC50 MDR cells)/(EC50 parental cells), FEPS/K562; for EC50: Homo sapiens, K562, 72 h, MTT
Protocol: as §3, §4, §1

[3] = test system: T. cruzi amastigotes (Tulahuen C2C4 LacZ strain); experiment: microbe, parasite or virus in culture; format: cell-based, Trypanosoma cruzi; conditions: Trypanosoma cruzi, TULAHUEN; for viability at 50 µM: LLC-MK2, 120 h, screening at 50 μM, 120 h, compared with untreated controls
Protocol: To a monolayer of 1.0 × 10^7 LLC-MK2 cells in a 150 cm^2 culture flask were added 5.0 × 10^7 trypomastigotes of T. cruzi expressing the […] (Tulahuen C2C4 LacZ) in complete DMEM with 2.5% FBS. The infection was allowed to occur for 24 h, the supernatant was removed, and the cell monolayer was washed with PBS. Complete DMEM with 2.5% FBS was renewed every 2 days up to the sixth day after infection. Trypomastigote forms were collected daily from the supernatant between days 7 and 12 after infection, enriched by differential centrifugation (1500× g for 10 min, 5580× g for 20 min), and resuspended in complete DMEM with 5% FBS. Parasite density was determined by counting the mobile trypomastigotes on Neubauer chambers before use.
. The medium was renewed, and trypomastigote forms of T. cruzi (Tulahuen C2C4 LacZ strain, 2.0 × 10^5 parasites per well) were added. After incubation for 24 h at 37 °C in 5% CO2, the cell monolayer was washed with PBS to remove noninternalized parasites. DMEM without phenol red and 5% FBS was added, and infected cells were treated with compounds at a range of concentrations in triplicate (50 μM or 100–1 μM). Untreated infected cells and noninfected LLC-MK2 cells were used as negative and positive controls, respectively. Vehicle control containing DMEM without phenol red and 0.3% DMSO was maintained for comparison. After incubation for 120 h at 37 °C in 5% CO2, a solution containing […] and 0.8% IGEPAL CA-630 in PBS (30 µL per well), followed by further incubation for 2 h at 37 °C in 5% CO2. Absorbance was measured using a microplate reader at 570 nm.
as §1

[4] = Cytotoxicity to LLC-MK2 host cells (MTT); format: cell-based; conditions: rhesus monkey, LLC-MK2 cells (kidney fibroblasts); screening at 50 μM, 120 h
Protocol: as §2
(§5) LLC-MK2 cells were seeded in a 96-well microplate (1.0 × 10^4 cells per well) in complete DMEM with 5% FBS (120 µL per well). After incubation for 24 h at 37 °C in 5% CO2, the medium was renewed, and compounds were added at a range of concentrations in triplicate (50 μM or 100–1 μM). Untreated cells and cells treated with DMEM and 10% DMSO were used as negative and positive controls, respectively. Vehicle control containing DMEM and 0.3% DMSO was maintained for comparison. After incubation for 120 h at 37 °C in 5% CO2, the medium was renewed, and MTT salt solution in PBS was added (3.0 mM, 20 µL per well). After incubation for 2 h at 37 °C in 5% CO2, the supernatant was removed, and MTT formazan was dissolved in DMSO (150 µL per well). Absorbance was measured using a microplate reader at 570 nm.
as §1

[5] = Cytotoxicity to BALB/c mouse total splenocytes (MTT); format: cell-based; conditions: male, total splenocytes (primary), 100 μM, 48 h, compared to the untreated control (Table S1)
Protocol: BALB/c mouse total splenocytes were harvested from male mice between 6–8 weeks old. After euthanasia, the spleens were removed and macerated in DMEM. After centrifugation, the cells were treated with hemolytic ACK buffer at 37 °C for 5 min. […] After incubation for 48 h at 37 °C in 5% CO2, cell viability was determined after the addition of 20 µL per well of a solution containing MTT salt (3.0 mM) and phenazine metasulphate (0.72 mM). After further incubation for 1 h at 37 °C, the medium was removed, and DMSO was added to dissolve the dark-blue formazan crystals formed by MTT reduction. Absorbance was measured on a microplate reader at 570 nm.
as §1

LLC-MK2 cells = experiment: Cytotoxicity to LLC-MK2 host cells (MTT); format: cell-based; conditions: Macaca mulatta, LLC-MK2; 120 h, MTT
Protocol: as §2, §5, §1

Row | Structure (SMILES) | EC50 (K562) | RR (relative resistance) Lucena-1 (Lucena-1 (K562/VCR)) | EC50 (Lucena-1 (K562/VCR)) | RR (relative resistance) FEPS (FEPS (K562/DNR)) | EC50 (FEPS (K562/DNR)) | viability at 50 µM [3] | viability at 120 h, 50 µM [4] | EC50 ([1]; MTT) | viability at 48 h, 100 µM [5] | melting point | further results
1 | C[C@@H]1[C@H](O)[C@@H](C)/C=C/C=C/C=C/C=C/C=C/C=C/C=C/[C@H](O[C@@H]2O[C@H](C)[C@@H](O)[C@H](N)[C@@H]2O)C[C@@H]2O[C@](O)(C[C@@H](O)C[C@@H](O)[C@H](O)CC[C@@H](O)C[C@@H](O)CC(=O)O[C@H]1C)C[C@H](O)[C@H]2C(=O)O [Amphotericin B, reference compound] | – | – | – | – | – | – | – | – | – | – | EC50 [1]: 0.094 ± 0.001 µM; EC50 ([2]; Leishmania amazonensis, RAW264.7, 48 h, read-out: EC50 L. amazonensis intracellular amastigotes): 0.151 ± 0.022 µM; S.I. (selectivity index) ([2]; host cell/parasite EC50 ratio, RAW/L. amazonensis): 65.2; EC50 (RAW 264.7 cells): 9.8 ± 3.3 µM
2 | COc1ccc(OC)c(/C=C/C(=O)Nc2nc3ccccc3s2)c1 [Compound 1] | – | – | – | – | – | – | – | – | – | – | apoptosis (T. cruzi epimastigotes): 40.2%; necrosis (T. cruzi epimastigotes): 17.9%; parasite death (T. cruzi epimastigotes): 58.1%
3 | C(=C\c1nc(-c2ccccc2)no1)/c1ccc2c(c1)OCO2 [Compound 13, (E)-3-phenyl-5-[2-(3,4-methylenedioxy-phenyl)vinyl]-1,2,4-oxadiazole] | 92.3 ± 4.2 µM | 0.50 | 46.5 ± 1.9 µM | 0.74 | 68.5 ± 8.7 µM | 72 ± 3.7% | 75.9 ± 1.3% | > 100 µM | 98.8 ± 5.1% | 157 to 159 °C | –
4 | COc1cccc(/C=C/c2nc(-c3cc(OC)c(OC)c(OC)c3)no2)c1 [Compound 22, (E)-3-(3,4,5-trimethoxyphenyl)-5-[2-(3-methoxyphenyl)-vinyl]-1,2,4-oxadiazole] | > 100 µM | <0.73 | 72.9 ± 3 µM | <0.36 | 36.1 ± 12.4 µM | 66.1 ± 2.3% | 87.1 ± 1.7% | > 100 µM | 63.5 ± 2.4% | 117 to 119 °C | –
5 | O=C(Cn1ccnc1[N+](=O)[O-])NCc1ccccc1 [Benznidazole, reference compound] | – | – | – | – | – | 23.2 ± 1.4% | – | – | – | – | EC50 ([3]; in LLC-MK2, 120 h, read-out: EC50 T. cruzi intracellular amastigotes): 1.5 ± 0.2 µM; EC50 (LLC-MK2 cells): > 100 µM
6 | COc1ccc(/C=C/c2nc(-c3ccccc3)no2)cc1 [Compound 11, (E)-3-phenyl-5-[2-(4-methoxyphenyl)vinyl]-1,2,4-oxadiazole] | > 100 µM | – | > 100 µM | <0.59 | 58.8 ± 6.1 µM | 86.2 ± 5.3% | 77.4 ± 4% | > 100 µM | 84.4 ± 2.9% | 132 to 135 °C | –
